# Measured values published in US20240366598A1, “GLUCOSE-DEPENDENT INSULINOTROPIC POLYPEPTIDE RECEPTOR ANTAGONISTS AND USES THEREOF” (Pfizer Inc., priority 2023, published 2024).
# Where a name gives a salt, the structure may show the parent alone.
# Molecular target: T1, human Glucose-dependent Insulinotropic Polypeptide Receptor (hGIPR) (Homo sapiens, UniProt P48546)
# T1 sequence (P48546 22-466): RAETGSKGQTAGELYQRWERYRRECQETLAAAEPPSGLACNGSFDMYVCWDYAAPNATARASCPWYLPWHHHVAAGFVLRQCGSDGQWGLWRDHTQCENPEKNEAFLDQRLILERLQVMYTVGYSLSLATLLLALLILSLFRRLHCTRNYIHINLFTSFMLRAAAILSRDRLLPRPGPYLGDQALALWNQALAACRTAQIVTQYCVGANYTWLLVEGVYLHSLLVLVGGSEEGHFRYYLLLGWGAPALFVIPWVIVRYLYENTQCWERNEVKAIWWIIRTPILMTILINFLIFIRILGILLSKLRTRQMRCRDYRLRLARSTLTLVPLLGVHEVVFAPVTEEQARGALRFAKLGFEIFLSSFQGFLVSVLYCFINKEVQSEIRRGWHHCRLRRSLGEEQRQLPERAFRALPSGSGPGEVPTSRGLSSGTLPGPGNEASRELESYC
# Test: Functional in vitro GIPR antagonist potency assay (cAMP HTRF, CHO-K1 cells stably expressing hGIPR, hGIP stimulation at about EC80)
# Format: cell-based
# Details: geometric mean, hGIP at estimated EC80, examples marked ^2: overall geometric mean of multiple forms (including salts) tested
# In short: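 HTRF quantification of cAMP after stimulation with hGIP at an estimated EC80 for 30 min at 37 °C. Before stimulation, hGIPR-expressing CHO-K1 cells were exposed 2 h to test compound in IBMX-containing buffer, with 0.5% DMSO final. Percent effect is referenced to agonist alone (0%) and to 80 μM of a reference antagonist (100%), and runs required the agonist concentration to fall within the on-the-day EC50–EC90.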
row,Structure (SMILES),IC50 [nM]
1,"CC(C)c1ccc(NC(=O)N2CCC[C@@H]2C(=O)Nc2ccc(-c3ccc(O)cc3)cc2)cc1 [Example 46, (2R)-N^2-(4′-hydroxy[1,1′-biphenyl]-4-yl)-N^1-[4-(propan-2-yl)phenyl]pyrrolidine-1,2-dicarboxamide]",160
2,"CC(C)c1ccc(NC(=O)N2CCC[C@@H]2C(=O)Nc2ccc(-c3cccc(C(=O)O)n3)c(F)c2)cc1 [Example 75, 6-{2-fluoro-4-[(1-{[4-(propan-2-yl)phenyl]carbamoyl}-D-prolyl)amino]phenyl}pyridine-2-carboxylic acid]",140
3,"CC(C)c1ccc(NC(=O)N2CCC[C@@H]2C(=O)Nc2ccc(-c3ccc(C(=O)O)cc3)cc2)cc1 [Example 4, 4′-[(1-{[4-(Propan-2-yl)phenyl]carbamoyl}-D-prolyl)amino][1,1′-biphenyl]-4-carboxylic acid]",4.1
4,"Cc1cc(NC(=O)N2CCC[C@@H]2C(=O)Nc2ccc(-c3ccc(C(=O)O)nc3)cc2)ccc1C(F)(F)F [Example 17, 5-{4-[(1-{[3-Methyl-4-(trifluoromethyl)phenyl]carbamoyl}-D-prolyl)amino]phenyl}pyridine-2-carboxylic acid]",14
5,"CO[C@@H]1C[C@H](C(=O)Nc2ccc(-c3ccc(C(=O)O)cc3)cc2)N(C(=O)Nc2ccc(C(C)C)cc2)C1 [Example 36, 4′-{[(4R)-4-Methoxy-1-{[4-(propan-2-yl)phenyl]carbamoyl}-D-prolyl]amino}[1,1′-biphenyl]-4-carboxylic acid]",46
6,"N#Cc1cc(CNC(=O)N2CCC[C@@H]2C(=O)Nc2ccc(-c3ccc(C(=O)O)cc3)cc2)ccc1Cl [Example 107, 4′-[(1-{[(4-chloro-3-cyanophenyl)methyl]carbamoyl}-D-prolyl)amino][1,1′-biphenyl]-4-carboxylic acid]",720
7,"O=C(O)c1ccc(-c2ccc(NC(=O)[C@H]3CCCN3C(=O)NCc3ccc(C4CC4)cc3)cc2)cc1 [Example 136, 4′-[(1-{[(4-cyclopropylphenyl)methyl]carbamoyl}-D-prolyl)amino][1,1′-biphenyl]-4-carboxylic acid]",7.8

# Next, values leading:
row,IC50 [nM],Structure (SMILES)
1,9.3,"Cc1cc(NC(=O)N2CCC[C@@H]2C(=O)Nc2ccc(-c3cccc(C(=O)O)c3)cn2)ccc1C(C)C [Example 183, 3-{6-[(1-{[3-methyl-4-(propan-2-yl)phenyl]carbamoyl}-D-prolyl)amino]pyridin-3-yl}benzoic acid]"
2,71,"CC(C)c1ccc(NC(=O)N2CCC[C@@H]2C(=O)Nc2ccc(-c3ccc(C(=O)O)c(F)c3)cn2)cc1 [Example 199, 2-fluoro-4-{6-[(1-{[4-(propan-2-yl)phenyl]carbamoyl}-D-prolyl)amino]pyridin-3-yl}benzoic acid]"
3,31,"Cc1cc(C(=O)O)ccc1-c1ccc(NC(=O)[C@H]2CCCN2C(=O)Nc2ccc(C(F)(F)F)cc2)nc1 [Example 172, 3-methyl-4-{6-[(1-{[4-(trifluoromethyl)phenyl]carbamoyl}-D-prolyl)amino]pyridin-3-yl}benzoic acid]"
4,65,"Cc1cc(NC(=O)N2CCC[C@@H]2C(=O)Nc2ccc(-c3ccc(C(=O)O)nc3C)cc2)ncc1C(C)C [Example 216, 6-methyl-5-{4-[(1-{[4-methyl-5-(propan-2-yl)pyridin-2-yl]carbamoyl}-D-prolyl)amino]phenyl}pyridine-2-carboxylic acid, trifluoroacetate salt]"
5,6.7,"CC(C)c1ccc(NC(=O)N2CCC[C@@H]2C(=O)Nc2ccc(-c3ccc(C(=O)O)c(F)c3)cc2)cc1F [Example 214, 3-fluoro-4′-[(1-{[3-fluoro-4-(propan-2-yl)phenyl]carbamoyl}-D-prolyl)amino][1,1′-biphenyl]-4-carboxylic acid]"
6,7.7,"COc1cc(-c2ccc(NC(=O)[C@H]3CCCN3C(=O)Nc3ccc(C(F)(F)F)c(C)c3)cc2)ccc1C(=O)O [Example 158, 3-methoxy-4′-[(1-{[3-methyl-4-(trifluoromethyl)phenyl]carbamoyl}-D-prolyl)amino][1,1′-biphenyl]-4-carboxylic acid]"
